Consider 15 compounds from US20260317324A1, “BIFUNCTIONAL COMPOUNDS FOR DEGRADING BRAF VIA UBIQUITIN PROTEOSOME PATHWAY” (Nurix Therapeutics, Inc., priority 2023, published 2026).

The assay concerns the target T1, BRAF V600E (Homo sapiens, UniProt P15056, V600E).
T1 construct: endogenous C-terminal HiBiT fusion tag on BRAF V600E allele; endogenous in cells; host or cells: A375 clone 1F10 (CRISPR-Cas9 knock-in of the HiBiT tag; parental A375 from ATCC)
Kind of assay: BRAF HiBiT degradation assay, C-terminal HiBiT-tagged BRAF V600E A375 cells (clone 1F10), Nano-Glo HiBiT Lytic assay. Format: cell-based. The note with it: for Dmax: A-375. Summed up:
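Using CRISPR-engineered A375 cells that carry a C-terminal HiBiT tag on endogenous BRAF V600E, remaining protein was quantified by lytic luminescence relative to DMSO-treated cells, with wildtype A375 as the background control. DC50 denotes the concentration giving 50% degradation.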
(HiBiT is a short tag that completes a luciferase, so light tracks the accessible tagged protein.)

[1] abbreviates: A375 (BRAF V600E), DC50 at 50%: fitted conc. at Y=50.
The mark [2] stands for this setting: A375 (BRAF V600E), percentage protein degraded at maximal compound effect relative to DMSO.
The mark [3] stands for this setting: A375 (BRAF V600E, Class 1), DC50 at 50% degradation.
Setting [4] is: A375 (BRAF V600E, Class 1), observed Dmax, % protein degraded relative to DMSO control.

Bounds are passed on as bounds.

T1 sequence (P15056 whole entry V600E, the tested form may be a part): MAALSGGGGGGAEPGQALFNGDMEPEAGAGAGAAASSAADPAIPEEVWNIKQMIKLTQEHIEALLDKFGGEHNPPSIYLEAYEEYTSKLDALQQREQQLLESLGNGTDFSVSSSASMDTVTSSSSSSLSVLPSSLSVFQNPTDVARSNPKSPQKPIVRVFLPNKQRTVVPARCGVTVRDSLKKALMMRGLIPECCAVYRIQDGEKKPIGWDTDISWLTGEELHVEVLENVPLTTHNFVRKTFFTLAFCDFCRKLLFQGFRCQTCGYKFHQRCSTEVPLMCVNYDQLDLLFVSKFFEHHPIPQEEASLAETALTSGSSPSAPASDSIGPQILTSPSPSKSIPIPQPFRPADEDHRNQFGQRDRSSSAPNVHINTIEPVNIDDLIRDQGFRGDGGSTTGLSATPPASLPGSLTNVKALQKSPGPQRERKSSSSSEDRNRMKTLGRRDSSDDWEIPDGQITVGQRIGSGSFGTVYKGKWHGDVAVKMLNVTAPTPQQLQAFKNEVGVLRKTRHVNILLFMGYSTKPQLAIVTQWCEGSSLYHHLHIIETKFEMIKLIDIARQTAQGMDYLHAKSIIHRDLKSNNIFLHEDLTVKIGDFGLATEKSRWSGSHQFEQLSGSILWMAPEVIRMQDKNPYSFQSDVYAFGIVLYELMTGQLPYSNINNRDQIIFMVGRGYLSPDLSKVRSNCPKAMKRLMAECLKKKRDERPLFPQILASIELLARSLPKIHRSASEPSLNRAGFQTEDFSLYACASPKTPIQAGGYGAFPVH

For orientation: DC50 means the concentration giving 50% degradation. For orientation: Dmax means the largest share of the target that was removed. Higher therefore signals deep degradation. As to `CCCS(=O)(=O)Nc1cccc(-c2nc(C(C)(C)C)sc2-c2ccnc(Nc3ccc(C4CCN(C(=O)C5CCN(CC6CCN(c7ccc(C8CCC(=O)NC8=O)cn7)CC6)CC5)CC4)cc3)n2)c1F` (racemic) [Compound 175, Rac-N-{3-[2-tert-butyl-5-(2-{[4-(1-{1-[(1-{5-[(3R)-2,6-dioxopiperidin-3-yl]pyridin-2-yl}piperidin-4-yl)methyl]piperidine-4-carbonyl}piperidin-4-yl)phenyl]amino}pyrimidin-4-yl)-1,3-thiazol-4-yl]-2-fluorophenyl}propane-1-sulfonamide], the DC50 under setting [1] fell in the range of 10 to 50 nM. The compound further had a Dmax under setting [2] of 30 to 70%.

For `CCCS(=O)(=O)Nc1cccc(-c2nc(C3CCC4(CC3)CCN(C(=O)C[C@H]3CCN(c5ccc(C6CCC(=O)NC6=O)cc5)C3)CC4)sc2-c2ccnc(N)n2)c1F` (mixture of isomers) [Compound 253, N-{3-[5-(2-aminopyrimidin-4-yl)-2-(3-{2-[(3R)-1-{4-[(3RS)-2,6-dioxopiperidin-3-yl]phenyl}pyrrolidin-3-yl]acetyl}-3-azaspiro[5.5]undecan-9-yl)-1,3-thiazol-4-yl]-2-fluorophenyl}propane-1-sulfonamide], the DC50 under setting [3] was 10 to 50 nM. Besides, the Dmax under setting [4] was in the range of 30 to 70%.

Consider `CCCS(=O)(=O)Nc1cccc(-c2cn(-c3ccc(C(=O)N4CCN(CC5CCN(c6ccc([C@@H]7CCC(=O)NC7=O)cc6)CC5)CC4)cc3)nc2-c2ccncc2)c1F` [Compound 12, N-{3-[1-(4-{4-[(1-{4-[(3S)-2,6-dioxopiperidin-3-yl]phenyl}piperidin-4-yl)methyl]piperazine-1-carbonyl}phenyl)-3-(pyridin-4-yl)-1H-pyrazol-4-yl]-2-fluorophenyl}propane-1-sulfonamide], for which, under setting [1], the half-maximal degradation concentration (DC50) was 50 to 500 nM. The Dmax under setting [2] was in the range of 30 to 70%.

Regarding `CCCS(=O)(=O)Nc1cccc(-c2nc(C(C)(C)C3CCN(C(=O)CN4CCC5(CC4)CN(c4ccc6c(c4)C(=O)N(C4CCC(=O)NC4=O)C6=O)C5)CC3)sc2-c2ccnc(N)n2)c1F` (racemic) [Compound 240, Rac-N-{3-[5-(2-aminopyrimidin-4-yl)-2-(2-{1-[2-(2-{2-[(3R)-2,6-dioxopiperidin-3-yl]-1,3-dioxo-2,3-dihydro-1H-isoindol-5-yl}-2,7-diazaspiro[3.5]nonan-7-yl)acetyl]piperidin-4-yl}propan-2-yl)-1,3-thiazol-4-yl]-2-fluorophenyl}propane-1-sulfonamide], the DC50 under setting [1] is > 500 nM. This compound yielded a Dmax under setting [2] of 30 to 70%.

`CCCS(=O)(=O)Nc1cccc(-c2cn(-c3ccc(N4CCN(CC5CCN(c6ccc(C7CCC(=O)NC7=O)cn6)CC5)CC4)cc3)nc2-c2ccncc2)c1F` (racemic) [Compound 20, Rac-N-{3-[1-(4-{4-[(1-{5-[(3R)-2,6-dioxopiperidin-3-yl]pyridin-2-yl}piperidin-4-yl)methyl]piperazin-1-yl}phenyl)-3-(pyridin-4-yl)-1H-pyrazol-4-yl]-2-fluorophenyl}propane-1-sulfonamide] displayed a DC50 under setting [1] of 10 to 50 nM. For the same compound, the Dmax under setting [2] is > 70%.

For `CCCS(=O)(=O)Nc1cccc(-c2nc(C(C)(C)C)sc2-c2ccnc(N[C@H]3CC[C@H](N4CCN(C(=O)C5CCN(c6ccc(C7CCC(=O)NC7=O)cn6)CC5)CC4)CC3)n2)c1F` (mixture of isomers) [Compound 137, N-{3-[2-tert-butyl-5-(2-{[(1r,4r)-4-[4-(1-{5-[(3RS)-2,6-dioxopiperidin-3-yl]pyridin-2-yl}piperidine-4-carbonyl)piperazin-1-yl]cyclohexyl]amino}pyrimidin-4-yl)-1,3-thiazol-4-yl]-2-fluorophenyl}propane-1-sulfonamide], the DC50 under setting [1] was 50 to 500 nM. The compound further had a Dmax under setting [2] of 30 to 70%.

In turn, `CCN(C)S(=O)(=O)Nc1cccc(-c2nc(C)sc2-c2ccnc(Nc3ccc(N4CCN(CC5(C)CCN(c6ccc(C7CCC(=O)NC7=O)cn6)CC5)CC4)cn3)n2)c1F` (racemic) [Compound 34, Rac-(3S)-3-{6-[4-({4-[6-({4-[4-(3-{[ethyl(methyl)sulfamoyl]amino}-2-fluorophenyl)-2-methyl-1,3-thiazol-5-yl]pyrimidin-2-yl}amino)pyridin-3-yl]piperazin-1-yl}methyl)-4-methylpiperidin-1-yl]pyridin-3-yl}piperidine-2,6-dione] came in with a DC50 under setting [1] of 10 to 50 nM. Moreover, the Dmax under setting [2] was > 70%.

Take `CCCS(=O)(=O)Nc1cccc(-c2nc(C3CCC4(CC3)CCN(C(=O)CC3CCN(C5CCN(c6ccc7c(c6)C(=O)N(C6CCC(=O)NC6=O)C7=O)CC5)CC3)CC4)sc2-c2ccnc(N)n2)c1F` (racemic) [Compound 248, Rac-N-{3-[5-(2-aminopyrimidin-4-yl)-2-{3-[2-(1′-{2-[(3R)-2,6-dioxopiperidin-3-yl]-1,3-dioxo-2,3-dihydro-1H-isoindol-5-yl}-[1,4′-bipiperidin]-4-yl)acetyl]-3-azaspiro[5.5]undecan-9-yl}-1,3-thiazol-4-yl]-2-fluorophenyl}propane-1-sulfonamide]: the DC50 under setting [3] was < 10 nM. Also, the Dmax under setting [4] is > 70%.

Compound `CCCS(=O)(=O)Nc1cccc(-c2nc(C3(C)CCN(C(=O)C4CCN(CC5CCN(c6ccc(C7CCC(=O)NC7=O)cn6)CC5)CC4)CC3)sc2-c2ccnc(N)n2)c1F` (racemic) [Compound 218, Rac-N-{3-[5-(2-aminopyrimidin-4-yl)-2-(1-{1-[(1-{5-[(3R)-2,6-dioxopiperidin-3-yl]pyridin-2-yl}piperidin-4-yl)methyl]piperidine-4-carbonyl}-4-methylpiperidin-4-yl)-1,3-thiazol-4-yl]-2-fluorophenyl}propane-1-sulfonamide] came in with a DC50 under setting [1] of 50 to 500 nM. The Dmax under setting [2] was > 70%.

In the case of `CCCS(=O)(=O)Nc1cccc(-c2nc(C3CCC4(CC3)CCN(CC3CCN(c5ccc(C6CCC(=O)NC6=O)cc5)CC3)CC4)sc2-c2ccnc(N)n2)c1F` (racemic) [Compound 256, Rac-N-{3-[5-(2-aminopyrimidin-4-yl)-2-{3-[(1-{4-[(3R)-2,6-dioxopiperidin-3-yl]phenyl}piperidin-4-yl)methyl]-3-azaspiro[5.5]undecan-9-yl}-1,3-thiazol-4-yl]-2-fluorophenyl}propane-1-sulfonamide], the DC50 under setting [3] lay in the range of 50 to 500 nM. The same compound yielded a Dmax under setting [4] of 30 to 70%.

Regarding `O=C1CC[C@H](c2ccc(N3CCC(CN4CCN(c5ccc(-n6cc(-c7cc(F)cc(NS(=O)(=O)N8CCCC8)c7F)c(-c7ccncc7)n6)c(F)c5)CC4)CC3)cc2)C(=O)N1` [Compound 340, N-{3-[1-(4-{4-[(1-{4-[(3R)-2,6-dioxopiperidin-3-yl]phenyl}piperidin-4-yl)methyl]piperazin-1-yl}-2-fluorophenyl)-3-(pyridin-4-yl)-1H-pyrazol-4-yl]-2,5-difluorophenyl}pyrrolidine-1-sulfonamide], the DC50 under setting [3] is < 10 nM. For the same compound, the Dmax under setting [4] is > 70%.

In the case of `CCCS(=O)(=O)Nc1cccc(-c2nc(C3CCN(C(=O)C4CCN(CC5CCN(c6ccc(C7CCC(=O)NC7=O)cc6)CC5)CC4)CC3)sc2-c2ccnc(N)n2)c1F` (racemic) [Compound 228, Rac-N-{3-[5-(2-aminopyrimidin-4-yl)-2-(1-{1-[(1-{4-[(3R)-2,6-dioxopiperidin-3-yl]phenyl}piperidin-4-yl)methyl]piperidine-4-carbonyl}piperidin-4-yl)-1,3-thiazol-4-yl]-2-fluorophenyl}propane-1-sulfonamide], under setting [1], the DC50 was < 10 nM. Moreover, the Dmax under setting [2] was > 70%.

Consider `CCCS(=O)(=O)Nc1cccc(-c2nc(C(C)(C)C)sc2-c2ccnc(Nc3cnn(C4CCN(CC5CCN(c6ccc(C(=O)NC7CCC(=O)NC7=O)nc6)CC5)CC4)c3)n2)c1F` (racemic) [Compound 79, Rac-5-{4-[(4-{4-[(4-{2-tert-butyl-4-[2-fluoro-3-(propane-1-sulfonamido)phenyl]-1,3-thiazol-5-yl}pyrimidin-2-yl)amino]-1H-pyrazol-1-yl}piperidin-1-yl)methyl]piperidin-1-yl}-N-[(3R)-2,6-dioxopiperidin-3-yl]pyridine-2-carboxamide], for which the DC50 under setting [1] was < 10 nM. Under setting [2], this compound had a Dmax of 30 to 70%.

Take `O=C1CCC(c2ccc(N3CCC(CN4CCN(c5ccc(-n6cc(-c7cc(F)cc(NS(=O)(=O)N8CCCC8)c7F)c(-c7ccncc7)n6)c(F)c5)CC4)CC3)nc2)C(=O)N1` (racemic) [Compound 341, Rac-N-{3-[1-(4-{4-[(1-{5-[(3R)-2,6-dioxopiperidin-3-yl]pyridin-2-yl}piperidin-4-yl)methyl]piperazin-1-yl}-2-fluorophenyl)-3-(pyridin-4-yl)-1H-pyrazol-4-yl]-2,5-difluorophenyl}pyrrolidine-1-sulfonamide]: the DC50 under setting [3] is < 10 nM. Also, the Dmax under setting [4] was > 70%.

On to `CCCS(=O)(=O)Nc1cccc(-c2nc(C(C)(C)C)sc2-c2ccnc(Nc3cnn(CC4CCN(CC5CCN(c6ccc(C(=O)NC7CCC(=O)NC7=O)nc6)CC5)CC4)c3)n2)c1F` (racemic) [Compound 82, Rac-5-(4-{[4-({4-[(4-{2-tert-butyl-4-[2-fluoro-3-(propane-1-sulfonamido)phenyl]-1,3-thiazol-5-yl}pyrimidin-2-yl)amino]-1H-pyrazol-1-yl}methyl)piperidin-1-yl]methyl}piperidin-1-yl)-N-[(3R)-2,6-dioxopiperidin-3-yl]pyridine-2-carboxamide], for which the 50% degradation concentration (DC50) under setting [1] lay within 10 to 50 nM. Besides, the Dmax under setting [2] lay within 30 to 70%.
